According to patent US8981092B2, “Substituted 3,4-dihydro-2H-pyrrolo[1,2-a]pyrazin-1-ones as modulators of protein kinase activity” (Nerviano Medical Sciences S.r.l., priority 2008, dated 2015):

These compounds were tested against Full-length human PIM-1 (Homo sapiens, UniProt P11309). Conditions: read-out: PIM-1 IC50; ATP 200 μM, Aktide 25 μM, enzyme 1 nM.
Chain of Full-length human PIM-1 (P11309 whole entry): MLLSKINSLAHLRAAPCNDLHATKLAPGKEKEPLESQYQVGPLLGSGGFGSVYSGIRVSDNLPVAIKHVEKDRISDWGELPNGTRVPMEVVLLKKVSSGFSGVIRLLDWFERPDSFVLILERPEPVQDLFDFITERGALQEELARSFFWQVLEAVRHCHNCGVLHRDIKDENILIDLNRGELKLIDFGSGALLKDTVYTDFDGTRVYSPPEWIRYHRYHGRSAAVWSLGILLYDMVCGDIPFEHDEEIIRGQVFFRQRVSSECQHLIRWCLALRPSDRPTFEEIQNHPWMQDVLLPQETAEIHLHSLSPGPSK
Procedure: Biochemical Assay for Inhibitors of PIM-1 Kinase Activity
The inhibitory activity of putative kinase inhibitors and the potency of selected compounds were determined using a trans-phosphorylation assay.
Specific peptide or protein substrates are trans-phosphorylated by their specific ser-thr or tyr kinase in the presence of ATP traced with ^33P-γ-ATP, and in the presence of their own optimal buffer and cofactors.
At the end of the phosphorylation reaction, more than 98% unlabeled ATP and radioactive ATP is captured by an excess of the ion exchange dowex resin; the resin then settles down to the bottom of the reaction plate by gravity.
Supernatant is subsequently withdrawn and transferred into a counting plate, then evaluated by β-counting.
The buffer for PIM-1 assay was composed of HEPES 50 mM, at pH 7.5, with 10 mM MgCl2, 1 mM DTT, 3 μM NaVO3, and 0.2 mg/ml BSA
ATP concentration: 200 μM
Enzyme concentration: 1 nM
The test mix consisted of:
1) 3× Enzyme mix (done in Kinase Buffer 3×), 5 μL/well
2) 3× substrate and ATP mix (done in ddH2O), together with ^33P-γ-ATP, 5 μL/well
3) 3× test compounds (diluted into ddH2O-3% DMSO)-5 μL/well
a) for percent inhibition studies (HTS), individual dilution plates at 1 mM are diluted at a 3× concentration (30 μM) in ddH2O (3% DMSO=final concentration) using a Beckman NX automated pipetting platform. The same instrument is used for distributing the diluted mother plates into the test plates.
An automated station for serial dilutions (Biomek FX, Beckman) is used for producing 1:3 dilutions in 100% DMSO, from line A1 to A10, and for all the seven compounds in the column.
At the start of the run, the robot aspirates 5 μL of ATP mix, makes an air gap inside the tips (2 μL) and aspirates 2 μL of PIM mix. The following dispensation into the plates allows the kinase reaction to start upon 3 cycles of mixing, done by the robot itself.
The robot incubates the plates for 60 minutes at room temperature, and then stops the reaction by pipetting 70 μL of dowex resin suspension into the reaction mix. Three cycles of mixing are done immediately after the addition of the resin.
Another mixing cycle is performed after all the plates are stopped, this time using normal tips: the plates are then allowed to rest for about one hour in order to maximize ATP capture.
Data are analysed by an internally customized version of the SW package “Assay Explorer” that provides either % inhibition for primary assays or sigmoidal fittings of the ten-dilutions curves for IC50 determination in the secondary assays/hit confirmation routines.
For CN1CCN(C(=O)CC2CNC(=O)c3cc(-c4cccc(C(F)(F)F)c4)cn32)C(c2ccccc2)C1 (mixture of isomers) [Compound A133-M-B63], the IC50 was 2540 nM. Compound O=C(CC1CNC(=O)c2cc(-c3ccccc3F)cn21)NCC1CCCCC1 (stereo not drawn) [Compound A128-M-B22] has an IC50 of 120 nM. Compound O=C(C[C@@H]1CNC(=O)c2cc(-c3cccc(C(F)(F)F)c3)cn21)N[C@H](CO)Cc1ccccc1 [A133-M-B64 isomer R] has an IC50 of 2040 nM. Compound O=C(CC1CNC(=O)c2cc(-c3cccc(F)c3)cn21)NCc1ccncc1 (stereo not drawn) [Compound A127-M-B39] has an IC50 of 570 nM. Work on O=C(CC1CNC(=O)c2cc(-c3ccc(F)c(F)c3)cn21)NCc1ccc(F)cc1 (stereo not drawn) [Compound A139-M-B30] yielded an IC50 of 410 nM. NC[C@@H](NC(=O)C[C@H]1CNC(=O)c2cc(-c3cccc(F)c3)cn21)c1ccccc1 [A127-M-B65 isomer S] gave an IC50 of 10 nM. Compound COC(=O)c1cccc(-c2cc3n(c2)C(CC(=O)NCc2cccc(F)c2)CNC3=O)c1 (stereo not drawn) [Compound A142-M-B30] has an IC50 of 2520 nM. In the case of O=C(C[C@@H]1CNC(=O)c2cc(-c3cc(F)ccc3F)cn21)N[C@H](CO)C1CCCCC1 [A158-M-B61 isomer R], the IC50 is reported as 860 nM. In the case of CN1CCN(C(=O)CC2CNC(=O)c3cc(-c4ccnc(F)c4)cn32)C(c2ccccc2)C1 (mixture of isomers) [Compound A157-M-B63], the IC50 is reported as 690 nM. In the case of O=C(CC1CNC(=O)c2cc(-c3cccc(Cl)c3)cn21)NCCN1CCOCC1 (stereo not drawn) [Compound A150-M-B38], the IC50 is reported as 1060 nM. COC(=O)c1cccc(-c2cc3n(c2)C(CC(=O)NCc2ccccc2)CNC3=O)c1 (stereo not drawn) [Compound A142-M-B14] was tested, and the IC50 was 4830 nM. For O=C(CC1CNC(=O)c2cc(-c3cccc(F)c3)cn21)NCc1cccc(F)c1 (stereo not drawn) [Compound A127-M-B30], the IC50 was 190 nM. For O=C(CC1CNC(=O)c2cc(-c3cccc(Cl)c3)cn21)NCc1ccncc1 (stereo not drawn) [Compound A150-M-B39], the IC50 was 220 nM. Compound O=C(CC1CNC(=O)c2cc(-c3ccc(F)c(F)c3)cn21)NCC1CCCCC1 (stereo not drawn) [Compound A139-M-B22] has an IC50 of 90 nM. Compound O=C(C[C@@H]1CNC(=O)c2cc(-c3cccc(F)c3)cn21)N[C@H](CO)Cc1ccccc1 [A127-M-B64 isomer R] has an IC50 of 2910 nM. O=C(CC1CNC(=O)c2cc(-c3ccccc3F)cn21)NCc1cccc(F)c1 (stereo not drawn) [Compound A128-M-B30] gave an IC50 of 270 nM. Work on O=C(CC1CNC(=O)c2cc(-c3ccc(F)cc3F)cn21)NCc1ccncc1 (stereo not drawn) [Compound A151-M-B39] yielded an IC50 of 4110 nM. Compound CC(C)CCNC(=O)CC1CNC(=O)c2cc(-c3ccc(F)cc3F)cn21 (stereo not drawn) [Compound A151-M-B32] has an IC50 of 490 nM. O=C(CC1CNC(=O)c2cc(-c3ccc(F)c(F)c3)cn21)NCc1ccccc1 (stereo not drawn) [Compound A139-M-B14] was tested, and the IC50 was 220 nM. O=C(CC1CNC(=O)c2cc(-c3ccccc3F)cn21)NCc1ccccc1 (stereo not drawn) [Compound A128-M-B14] gave an IC50 of 200 nM. Compound O=C(C[C@@H]1CNC(=O)c2cc(-c3ccnc(F)c3)cn21)N[C@H](CO)C1CCCCC1 [A157-M-B61 isomer R] has an IC50 of 270 nM. In the case of O=C(C[C@H]1CNC(=O)c2cc(-c3cccc(F)c3)cn21)N[C@H](CO)C1CCCCC1 [A127-M-B61 isomer S], the IC50 is reported as 20 nM. For O=C(CC1CNC(=O)c2cc(-c3cccc(C(F)(F)F)c3)cn21)NCC1CCCCC1 (stereo not drawn) [Compound A133-M-B22], the IC50 was 380 nM. In the case of O=C(CC1CNC(=O)c2cc(-c3cn[nH]c3)cn21)NCC1CCCCC1 (stereo not drawn) [Compound A144-M-B22], the IC50 is reported as 480 nM. CC(C)CCNC(=O)CC1CNC(=O)c2cc(-c3cccc(Cl)c3)cn21 (stereo not drawn) [Compound A150-M-B32] was tested, and the IC50 was 230 nM. CCCNC(=O)CC1CNC(=O)c2cc(-c3cccc(Cl)c3)cn21 (stereo not drawn) [Compound A150-M-B25] was tested, and the IC50 was 450 nM. O=C(CC1CNC(=O)c2cc(-c3cccc(OC(F)(F)F)c3)cn21)NCc1cccc(F)c1 (stereo not drawn) [Compound A134-M-B30] was tested, and the IC50 was 890 nM. With CC(C)CCNC(=O)CC1CNC(=O)c2cc(-c3cccc(F)c3)cn21 (stereo not drawn) [Compound A127-M-B32] the IC50 was 610 nM. In the case of O=C(C[C@@H]1CNC(=O)c2cc(-c3cc(F)ccc3F)cn21)N[C@H](CO)c1ccccc1 [A158-M-B62 isomer R], the IC50 is reported as 550 nM. With CC(C)(C)NC(=O)CC1CNC(=O)c2cc(-c3cccc(Cl)c3)cn21 (stereo not drawn) [Compound A150-M-B43] the IC50 was 790 nM. O=C(CC1CNC(=O)c2cc(-c3cccc(Cl)c3)cn21)NC1CCCCC1 (stereo not drawn) [Compound A150-M-B24] showed an IC50 of 210 nM. For CN1CCN(C(=O)CC2CNC(=O)c3cc(-c4cccc(F)c4)cn32)C(c2ccccc2)C1 (mixture of isomers) [Compound A127-M-B63], the IC50 was 390 nM. Compound O=C(CC1CNC(=O)c2cc(-c3cccc(OC(F)(F)F)c3)cn21)NCc1ccccc1 (stereo not drawn) [Compound A134-M-B14] has an IC50 of 720 nM. O=C(C[C@H]1CNC(=O)c2cc(-c3cccc(C(F)(F)F)c3)cn21)N[C@H](CO)C1CCCCC1 [A133-M-B61 isomer S] was tested, and the IC50 was 70 nM. CN1CCN(C(=O)CC2CNC(=O)c3cc(-c4cc(F)ccc4F)cn32)C(c2ccccc2)C1 (mixture of isomers) [Compound A158-M-B63] showed an IC50 of 400 nM. O=C(CC1CNC(=O)c2cc(-c3ccc4c(c3)OCO4)cn21)NCC1CCCCC1 (stereo not drawn) [Compound A132-M-B22] was tested, and the IC50 was 360 nM. Work on O=C(CC1CNC(=O)c2cc(-c3cccc(Cl)c3)cn21)NCC1CC1 (stereo not drawn) [Compound A150-M-B48] yielded an IC50 of 120 nM. O=C(C[C@H]1CNC(=O)c2cc(-c3cccc(C(F)(F)F)c3)cn21)N[C@H](CO)c1ccccc1 [A133-M-B62 isomer S] gave an IC50 of 130 nM. For O=C(CC1CNC(=O)c2cc(-c3ccc(F)cc3F)cn21)NCc1ccccc1 (stereo not drawn) [Compound A151-M-B14], the IC50 was 100 nM. With O=C(CC1CNC(=O)c2cc(-c3cn[nH]c3)cn21)NCc1ccc(F)cc1 (stereo not drawn) [Compound A144-M-B30] the IC50 was 1100 nM. O=C(CC1CNC(=O)c2cc(-c3ccsc3)cn21)NCC1CCCCC1 (stereo not drawn) [Compound A33-M-B22] was tested, and the IC50 was 460 nM. With C=CCN1CCN(C(=O)CC2CNC(=O)c3cc(-c4cccc(Cl)c4)cn32)CC1 (stereo not drawn) [Compound A150-M-B49] the IC50 was 230 nM. In the case of O=C(CC1CNC(=O)c2cc(-c3cn[nH]c3)cn21)NCc1ccccc1 (stereo not drawn) [Compound A144-M-B14], the IC50 is reported as ≥ 10000 nM. In the case of CC(C)CCNC(=O)CC1CNC(=O)c2cc(-c3ccccc3F)cn21 (stereo not drawn) [Compound A128-M-B32], the IC50 is reported as 700 nM. In the case of O=C(CC1CNC(=O)c2cc(-c3cccc(C(F)(F)F)c3)cn21)NCc1ccccc1 (stereo not drawn) [Compound A133-M-B14], the IC50 is reported as 810 nM. Compound Cc1ccccc1NC(=O)CC1CNC(=O)c2cc(-c3cccc(Cl)c3)cn21 (stereo not drawn) [Compound A150-M-B36] has an IC50 of 1390 nM. O=C(CC1CNC(=O)c2cc(-c3ccccc3F)cn21)NCc1ccco1 (stereo not drawn) [Compound A128-M-B40] gave an IC50 of 250 nM. O=C(CC1CNC(=O)c2cc(-c3ccc(F)c(F)c3)cn21)NCc1ccncc1 (stereo not drawn) [Compound A139-M-B39] showed an IC50 of 980 nM. Compound O=C(CC1CNC(=O)c2cc(-c3ccc(F)c(F)c3)cn21)NCc1ccco1 (stereo not drawn) [Compound A139-M-B40] has an IC50 of 130 nM. For O=C(CC1CNC(=O)c2cc(-c3ccsc3)cn21)NCc1cccc(F)c1 (stereo not drawn) [Compound A33-M-B30], the IC50 was 580 nM. Compound O=C(CC1CNC(=O)c2cc(-c3cccc(F)c3)cn21)NCc1ccccc1 (stereo not drawn) [Compound A127-M-B14] has an IC50 of 180 nM. In the case of O=C(C[C@H]1CNC(=O)c2cc(-c3cccc(F)c3)cn21)N[C@H](CO)c1ccccc1 [A127-M-B62 isomer S], the IC50 is reported as 90 nM. In the case of O=C1NCC(CC(=O)N2CCCCCC2)n2cc(-c3cccc(Cl)c3)cc21 (stereo not drawn) [Compound A150-M-B45], the IC50 is reported as 580 nM. Compound O=C(CC1CNC(=O)c2cc(-c3cccc(Cl)c3)cn21)Nc1ccccc1 (stereo not drawn) [Compound A150-M-B52] has an IC50 of 430 nM. NC[C@@H](NC(=O)C[C@H]1CNC(=O)c2cc(-c3cccc(C(F)(F)F)c3)cn21)c1ccccc1 [A133-M-B65 isomer S] showed an IC50 of 50 nM. In the case of O=C(CC1CNC(=O)c2cc(-c3ccc(F)cc3)cn21)NCC1CCCCC1 (stereo not drawn) [Compound A129-M-B22], the IC50 is reported as 130 nM. O=C(C[C@@H]1CNC(=O)c2cc(-c3ccnc(F)c3)cn21)N[C@H](CO)Cc1ccccc1 [A157-M-B64 isomer R] showed an IC50 of 700 nM. COCCCNC(=O)CC1CNC(=O)c2cc(-c3cccc(Cl)c3)cn21 (stereo not drawn) [Compound A150-M-B42] showed an IC50 of 590 nM. In the case of O=C(CC1CNC(=O)c2cc(-c3ccccc3F)cn21)NCc1ccncc1 (stereo not drawn) [Compound A128-M-B39], the IC50 is reported as 540 nM. O=C(C[C@@H]1CNC(=O)c2cc(-c3ccnc(F)c3)cn21)N[C@H](CO)c1ccccc1 [A157-M-B62 isomer R] gave an IC50 of 1140 nM. Work on NCC(NC(=O)CC1CNC(=O)c2cc(-c3cc(F)ccc3F)cn21)c1ccccc1 (stereo not drawn) [A158-M-B65 isomer S] yielded an IC50 of 30 nM. O=C(CC1CNC(=O)c2cc(-c3cccc(C(F)(F)F)c3)cn21)NCc1ccc(F)cc1 (stereo not drawn) [Compound A133-M-B30] was tested, and the IC50 was 610 nM. In the case of O=C(C[C@@H]1CNC(=O)c2cc(-c3cccc(C(F)(F)F)c3)cn21)N[C@H](CO)C1CCCCC1 [A133-M-B61 isomer R], the IC50 is reported as 5940 nM. O=C(C[C@@H]1CNC(=O)c2cc(-c3cccc(C(F)(F)F)c3)cn21)N[C@H](CO)c1ccccc1 [A133-M-B62 isomer R] showed an IC50 of 4830 nM. For O=C(CC1CNC(=O)c2cc(-c3cccc(Cl)c3)cn21)NCc1ccccc1 (stereo not drawn) [Compound A150-M-B14], the IC50 was 140 nM. With O=C(CC1CNC(=O)c2cc(-c3cccc(Cl)c3)cn21)NC1CCCC1 (stereo not drawn) [Compound A150-M-B26] the IC50 was 240 nM.
